Assay results published in US20190195897A1, “GLYCOSYLATED METABOLITES” (UNIVERSITEIT LEIDEN, priority 2015, published 2019).

Key:
[1] = target: T1, recombinant GBA1 (rGBA1, Cerezyme) (Homo sapiens, UniProt P04062, R534H); assay: Degradation of GlcChol by rGBA1; format: biochemical
T1 construct: purchased Genzyme (Genzyme Nederland, Naarden, The Netherlands)
T1 sequence (P04062 40-536 R534H): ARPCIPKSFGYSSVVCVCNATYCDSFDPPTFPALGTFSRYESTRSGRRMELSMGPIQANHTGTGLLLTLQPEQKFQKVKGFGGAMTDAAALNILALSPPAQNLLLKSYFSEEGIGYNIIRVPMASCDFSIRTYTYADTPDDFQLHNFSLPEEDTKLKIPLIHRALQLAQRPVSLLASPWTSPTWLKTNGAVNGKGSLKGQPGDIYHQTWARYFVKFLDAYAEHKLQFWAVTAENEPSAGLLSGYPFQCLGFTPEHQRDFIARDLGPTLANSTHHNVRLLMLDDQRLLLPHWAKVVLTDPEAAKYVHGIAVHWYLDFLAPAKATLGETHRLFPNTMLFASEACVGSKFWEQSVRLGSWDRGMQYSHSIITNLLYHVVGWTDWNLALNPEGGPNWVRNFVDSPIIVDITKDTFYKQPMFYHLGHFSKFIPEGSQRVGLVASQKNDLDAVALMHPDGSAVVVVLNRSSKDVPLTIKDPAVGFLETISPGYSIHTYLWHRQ
Protocol: FIG. 1D: Linearity of GlcChol quantification and its complete digestion with rGBAl. (5 IU) for 60 min at 37 C.
The physiological significance of glucosylation of cholesterol is hypothetically great since it renders the molecule far more water soluble. To establish whether GlcChol physiologically occurs in mammals, firstly a LC-MS/MS procedure was developed for its quantitative detection. For this purpose, a ^13C-isotope labeled cholesterolglucoside was synthesized to be used as internal standard in sensitive quantitative detection of GlcChol by LC-MS/MS. The use of the isotope labeled compound as internal standard avoids the need for corrections for extraction efficiency, chromatographic behavior and ionization efficiency, during quantification GlcChol. […] The limit of detection (LOD) was 0.5 pmol/mL plasma, with a signal to noise ratio of 3 and a limit of quantitation (LOQ) of 0.9 pmol/mL plasma with a signal to noise ratio of 10.
Both GBA and GBA2, but not GBA3, are able to degrade by hydrolysis as well as synthesize GlcChol at conditions optimal for degradation of 4MU-8-glucoside (FIG. 1D; supplemental Table 1). […] This ability of the several GBA's to hydrolyze as well as synthesize GlcChol was studied in vitro using 25-NBD-cholesterol as acceptor and detection of 25-NBD-glucoside formation by TLC and fluorescence scanning. […]

GBA2 = target: T2, GBA2 (Mus musculus, UniProt Q69ZF3); assay: Degradation of GlcChol by GBA2; format: biochemical, murine; settings: GBA2, input 18 nmol 4MU-β-Glc hydrolysis per ml/h
T2 construct: Myc-His (C); expressed in transfected cells; host or cells: COS-7 cells, used as homogenate/lysate
T2 sequence (Q69ZF3 1-918): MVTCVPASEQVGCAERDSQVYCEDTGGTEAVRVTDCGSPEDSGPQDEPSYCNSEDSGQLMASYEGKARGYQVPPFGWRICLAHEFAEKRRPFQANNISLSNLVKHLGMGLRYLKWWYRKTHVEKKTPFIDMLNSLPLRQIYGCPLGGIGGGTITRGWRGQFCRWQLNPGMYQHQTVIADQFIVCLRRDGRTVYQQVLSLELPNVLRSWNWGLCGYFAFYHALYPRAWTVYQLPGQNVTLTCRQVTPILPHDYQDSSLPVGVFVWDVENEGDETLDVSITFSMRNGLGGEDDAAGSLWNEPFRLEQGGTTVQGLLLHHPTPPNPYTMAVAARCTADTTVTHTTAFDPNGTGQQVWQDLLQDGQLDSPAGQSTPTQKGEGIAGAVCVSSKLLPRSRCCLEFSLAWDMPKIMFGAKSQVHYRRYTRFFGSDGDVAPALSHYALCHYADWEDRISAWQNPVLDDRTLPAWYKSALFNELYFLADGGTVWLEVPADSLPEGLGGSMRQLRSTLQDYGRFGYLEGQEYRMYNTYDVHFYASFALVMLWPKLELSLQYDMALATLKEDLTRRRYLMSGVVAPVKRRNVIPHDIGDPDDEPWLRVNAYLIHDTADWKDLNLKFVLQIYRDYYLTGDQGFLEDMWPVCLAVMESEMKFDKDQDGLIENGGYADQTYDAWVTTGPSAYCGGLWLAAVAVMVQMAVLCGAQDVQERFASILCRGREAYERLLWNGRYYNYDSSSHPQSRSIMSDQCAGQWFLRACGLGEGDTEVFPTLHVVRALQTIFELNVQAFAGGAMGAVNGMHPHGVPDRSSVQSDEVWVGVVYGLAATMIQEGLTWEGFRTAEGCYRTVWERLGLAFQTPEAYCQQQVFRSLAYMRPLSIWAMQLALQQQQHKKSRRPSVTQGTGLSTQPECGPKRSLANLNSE
From the text: Both GBA and GBA2, but not GBA3, are able to degrade by hydrolysis as well as synthesize GlcChol at conditions optimal for degradation of 4MU-8-glucoside (FIG. 1D; supplemental Table 1). […] This ability of the several GBA's to hydrolyze as well as synthesize GlcChol was studied in vitro using 25-NBD-cholesterol as acceptor and detection of 25-NBD-glucoside formation by TLC and fluorescence scanning. As source of enzyme rGBA1 was used and GBA2 and GBA3 were individually overexpressed in COST-cells. Overexpression of enzymes was checked by measuring enzymatic activity with appropriate assays and visualization of enzymes with the broad-specificity β-glucopyranosyl cyclophellitolaziridine-type ABP (38). rGBA1 and lysates of GBA2 and GBA3 overexpressing cells were incubated with natural glucosylceramide (C16:0-GloCer or C18:1-GlcCer) as donors and 25-NBD-cholesterol as acceptor. […]
Homogenates of COS-7 cells overexpressing GBA2 and/or GCS, were analyzed for enzymatic activity of GBA2 using artificial 4MU-Glc substrate as earlier described (38). […] The reaction was terminated by addition of 1.25 mL stop-buffer (0.3 M Glycine/NaOH, pH 10.6) and the released 4MU was measured with a LS55 Fluorescence Spectrometer (Perkin-Elmer, Waltham, Mass., USA).

Structure (SMILES): CC(C)CCC[C@@H](C)[C@H]1CC[C@H]2[C@@H]3CC=C4C[C@@H](O[C@@H]5O[C@H](CO)[C@@H](O)[C@H](O)[C@H]5O)CC[C@]4(C)[C@H]3CC[C@]12C [GlcChol, 1-O-cholesteryl-β-D-glucopyranoside]
- substrate for recombinant GBA1 ([1]; even at sub-optimal conditions (absence of Triton-X-100 and sodium taurocholate)): excellent substrate
- Percentage digestion GlcChol after 1 h (10 nmole) ([1]; rGBA1, input 15 nmol 4MU-β-Glc hydrolysis per ml/h): 95%
- Percentage digestion GlcChol after 1 h (10 nmole) (GBA2): 83%
